Among the data in patent US20220348564A1, “PHENYL-[1,3]DIOXOLO[4,5-C]PYRIDINYL-PHENYL-, PHENYL-[1,3]DIOXOLO[4,5-C]PYRIDINYL-HETEROARYL-, OR PHENYL-(1,3)DIOXO[4,5-C]PYRIDINYL-PIPERIDINYL-METHYL-OXETANYLMETHYL-1H-BENZO[D]IMIDAZOLE-CARBOXYLIC ACID DERIVATIVES AND METHODS OF USING SAME” (Eccogene (Shanghai) Co., Ltd., priority 2021, published 2022) are EC50 values, retold here.

Structures are written as SMILES.

By EC50 is commonly meant the midpoint of the concentration-response curve. Low readings indicate greater potency, high ones weaker potency.

T1 sequence (P43220 24-463): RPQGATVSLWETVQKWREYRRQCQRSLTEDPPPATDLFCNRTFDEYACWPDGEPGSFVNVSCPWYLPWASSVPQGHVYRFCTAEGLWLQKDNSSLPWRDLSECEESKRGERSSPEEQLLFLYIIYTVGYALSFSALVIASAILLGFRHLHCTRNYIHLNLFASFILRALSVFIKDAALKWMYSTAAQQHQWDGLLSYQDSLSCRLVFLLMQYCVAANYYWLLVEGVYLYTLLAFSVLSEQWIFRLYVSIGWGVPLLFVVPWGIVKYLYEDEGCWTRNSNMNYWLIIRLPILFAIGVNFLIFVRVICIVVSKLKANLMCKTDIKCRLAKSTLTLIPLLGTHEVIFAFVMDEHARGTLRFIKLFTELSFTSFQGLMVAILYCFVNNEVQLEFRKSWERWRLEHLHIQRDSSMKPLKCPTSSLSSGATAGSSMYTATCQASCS

The test has as its target T1, human GLP-1 (Homo sapiens, UniProt P43220).
T1 construct: expressed in transfected cells
As to the kind of experiment: h-GLP-1 activity assay (Cisbio cAMP Gs dynamic kit, HTRF). The format is cell-based. The note with it: HEK293 cells with stable expression of human GLP-1, relative EC50, 10 nM human GLP-1 = 100% response. As for the experimental part:
Human GLP-1 agonizing activity was detected in HEK293 cells with stable expression of human GLP-1 by Cisbio cAMP Gs dynamic kit (Catalog #62AM4PEC) according to manufacturer's protocol. Briefly, cells were collected and resuspended in assay buffer containing 0.1% BSA and 0.5 mM of IBMX at concentration to 2.5×10^5 cells/mL. Two μL 5× compound solution and 8 μL cell suspension were added to each well of low-volume 384 white assay plate. After 30 min incubation at 37° C., 5 μL cAMP-d2 working solution and 5 μL anti-cAMP antibody-cryptate were added to each well, and incubate at room temperature for 1 hr. Series dilution of cAMP was used as standard. Human GLP-1 (7-37) was used as positive control and 10 nM human GLP-1 was set as 100% response. HTRF signals were read at 665 and 615 nm with EnVision plate reader and calculated cAMP concentration by intrapolation to the standard curve. The EC50 value of the tested compounds was calculated by fitting the dose response curve using a 4-parameter non-linear regression routine and relative EC50 was presented in Table S.
For orientation: Time-resolved FRET reads energy transfer from a long-lived donor to a nearby acceptor.
Molecule `C[C@]1(c2ccc(Cl)cn2)Oc2cccc(C3=CC[C@@H](Cc4nc5ccc(C(=O)O)cc5n4Cc4cncs4)OC3)c2O1` (single isomer, unassigned) [Compound 113] displayed an EC50 of 20 to 100 nM. As to `C[C@@]1(c2ccc(Cl)cc2F)Oc2cccc(-c3ccc(Cc4nc5ccc(C(=O)O)cc5n4C[C@@H]4CCO4)cc3)c2O1` (single isomer, unassigned) [Compound 3], the EC50 is over 100 nM. As for `N#Cc1ccc(COc2cccc(C34CCC(Cc5nc6ccc(C(=O)O)cc6n5C[C@@H]5CCO5)(CC3)OC4)n2)c(F)c1` [Compound 36, (S)-2-((4-(6-((4-cyano-2-fluorobenzyl)oxy)pyridin-2-yl)-2-oxabicyclo[2.2.2]octan-1-yl)methyl)-1-(oxetan-2-ylmethyl)-1H-benzo[d]imidazole-6-carboxylic acid], the half-maximal effective concentration (EC50) was over 100 nM. For the molecule `CC1(c2ccc(C(F)(F)F)cc2F)Oc2cccc(-c3ccc(Cc4nc5ccc(C(=O)O)cc5n4C[C@@H]4CCO4)cc3)c2O1` (mixture of isomers) [Compound 26, 2-(4-(2-(2-fluoro-4-(trifluoromethyl)phenyl)-2-methylbenzo[d][1,3]dioxol-4-yl)benzyl)-1-(((S)-oxetan-2-yl)methyl)-1H-benzo[d]imidazole-6-carboxylic acid], the EC50 is under 20 nM. The value for `C[C@@]1(c2ccc(Cl)cn2)Oc2cccc(-c3ccc(Cc4nc5ccc(C(=O)O)cc5n4C[C@@H]4CCO4)cc3)c2O1` (single isomer, unassigned) [Compound 41] was over 100 nM. Under `CN1C(=O)C(c2ccc(Cl)cc2F)Oc2c(C3CCN(Cc4nc5ccc(C(=O)O)cc5n4C[C@@H]4CCO4)CC3)cccc21` (mixture of isomers) [Compound 105, 2-((4-(2-(4-chloro-2-fluorophenyl)-4-methyl-3-oxo-3,4-dihydro-2H-benzo[b][1,4]oxazin-8-yl)piperidin-1-yl)methyl)-1-(((S)-oxetan-2-yl)methyl)-1H-benzo[d]imidazole-6-carboxylic acid] stands over 100 nM; under `CC1(c2ccc(Cl)cc2F)Oc2cccc(-c3ccc(Cc4nc5ccc(C(=O)O)cc5n4C[C@@H]4CCO4)nc3)c2O1` (mixture of isomers) [Compound 16, 2-((5-(2-(4-chloro-2-fluorophenyl)-2-methylbenzo[d][1,3]dioxol-4-yl)pyridin-2-yl)methyl)-1-(((S)-oxetan-2-yl)methyl)-1H-benzo[d]imidazole-6-carboxylic acid], under 20 nM. For the molecule `C[C@@]1(c2ccc(Cl)cn2)Oc2cccc(C3CC4CC3CN4Cc3nc4ccc(C(=O)O)cc4n3C[C@@H]3CCO3)c2O1` (single isomer, unassigned) [Compound 74], the EC50 was over 100 nM. Turning to `O=C(O)c1ccc2nc(CN3CCC(c4cccc5c4CC(c4ccc(Cl)cn4)O5)CC3)n(C[C@@H]3CCO3)c2c1` (mixture of isomers) [Compound 27, 2-((4-(2-(5-chloropyridin-2-yl)-2,3-dihydrobenzofuran-4-yl)piperidin-1-yl)methyl)-1-(((S)-oxetan-2-yl)methyl)-1H-benzo[d]imidazole-6-carboxylic acid], the half-maximal effective concentration (EC50) was over 100 nM.

For the molecule `CC1(c2ccc(Cl)cc2F)Oc2cccc(C3CCC(Cc4nc5ccc(C(=O)O)cc5n4C[C@@H]4CCO4)OC3)c2O1` (mixture of isomers) [Compound 56, 2-((5-(2-(4-chloro-2-fluorophenyl)-2-methylbenzo[d][1,3]dioxol-4-yl)tetrahydro-2H-pyran-2-yl)methyl)-1-(((S)-oxetan-2-yl)methyl)-1H-benzo[d]imidazole-6-carboxylic acid], the 50% effective concentration (EC50) was under 20 nM. `O=C(O)c1ccc2nc(C[C@@H]3CC[C@@H](c4cccc(OCc5ccc(Cl)cc5F)n4)CO3)n(Cc3cncs3)c2c1` (single isomer, unassigned) [Compound 29] yielded an EC50 of over 100 nM. Regarding `C[C@@]1(c2ccc(C(F)(F)F)cn2)Oc2cccc(C3=CCC(Cc4nc5ccc(C(=O)O)cc5n4C[C@@H]4CCO4)OC3)c2O1` (single isomer, unassigned) [Compound 121], the concentration giving a half-maximal response (EC50) is under 20 nM. The value for `C[C@@]1(c2ccc(Cl)cc2F)Oc2cccc(C3CCN(Cc4nc5ccc(-c6noc(=O)[nH]6)cc5n4C[C@@H]4CCO4)CC3)c2O1` (single isomer, unassigned) [Compound 37] was under 20 nM. `C[C@]1(c2ccc(Cl)cn2)Oc2cccc(-c3ccc(Cc4nc5ccc(C(=O)O)cc5n4C[C@@H]4CCO4)cc3)c2O1` (single isomer, unassigned) [Compound 40] showed an EC50 of under 20 nM.

The molecule `C[C@@]1(c2ccc(Cl)cn2)Oc2cccc(C3(F)CCN(Cc4nc5ccc(C(=O)O)cc5n4C[C@@H]4CCO4)CC3)c2O1` (single isomer, unassigned) [Compound 83] had a 50% effective concentration (EC50) of 20 to 100 nM.

Take `CC1(c2ccc(Cl)cn2)COc2cccc(C3CCN(Cc4nc5ccc(C(=O)O)cc5n4C[C@@H]4CCO4)CC3)c2OC1` (mixture of isomers) [Compound 86, 2-((4-(3-(5-chloropyridin-2-yl)-3-methyl-3,4-dihydro-2H-benzo[b][1,4]dioxepin-6-yl)piperidin-l-yl)methyl)-1-(((S)-oxetan-2-yl)methyl)-1H-benzo[d]imidazole-6-carboxylic acid]: the concentration giving a half-maximal response (EC50) is over 100 nM. With `C[C@]1(c2ccc(Cl)cc2F)Oc2cccc(C3=CC[C@H](Cc4nc5ccc(C(=O)O)cc5n4C[C@@H]4CCO4)OC3)c2O1` (single isomer, unassigned) [Compound 107], the EC50 is over 100 nM.

In the case of `C[C@@]1(c2ccc(Cl)cn2)Oc2cccc(C34COC(Cc5nc6ccc(C(=O)O)cc6n5C[C@@H]5CCO5)CC3C4)c2O1` (single isomer, unassigned) [Compound 75], the concentration for a half-maximal effect (EC50) was over 100 nM. For the molecule `N#Cc1ccc(COc2cccc(N3CCC(Oc4nc5ccc(C(=O)O)cc5n4C[C@@H]4CCO4)CC3)n2)c(F)c1` [Compound 80, (S)-2-((1-(6-((4-cyano-2-fluorobenzyl)oxy)pyridin-2-yl)piperidin-4-yl)oxy)-1-(oxetan-2-ylmethyl)-1H-benzo[d]imidazole-6-carboxylic acid], the EC50 is over 100 nM. Regarding `CC1(c2ccc(Cl)cc2F)Oc2cccc(C3=CCC(Cc4nc5ccc(C(=O)O)cc5n4C[C@@H]4CCO4)OC3)c2O1` (mixture of isomers) [Compound 61, 2-((5-(2-(4-chloro-2-fluorophenyl)-2-methylbenzo[d][1,3]dioxol-4-yl)-3,6-dihydro-2H-pyran-2-yl)methyl)-1-(((S)-oxetan-2-yl)methyl)-1H-benzo[d]imidazole-6-carboxylic acid], the EC50 is under 20 nM.

On to `C[C@]1(c2ccc(C(F)(F)F)cn2)Oc2cccc(C3=CCC(Cc4nc5c(F)cc(C(=O)O)cc5n4C[C@@H]4CCO4)OC3)c2O1` (single isomer, unassigned) [Compound 122], for which the half-maximal effective concentration (EC50) was over 100 nM. `O=C(O)c1ccc2nc(CC3CC=C(c4cccc5c4OC(c4ccc(Cl)cc4F)CO5)CO3)n(C[C@@H]3CCO3)c2c1` (mixture of isomers) [Compound 70, 2-((5-(3-(4-chloro-2-fluorophenyl)-2,3-dihydrobenzo[b][1,4]dioxin-5-yl)-3,6-dihydro-2H-pyran-2-yl)methyl)-1-(((S)-oxetan-2-yl)methyl)-1H-benzo[d]imidazole-6-carboxylic acid] displayed a half-maximal effective concentration (EC50) of 20 to 100 nM. The value for `O=C(O)c1ccc2nc(CCN3CC(c4cccc(OCc5ccc(Cl)cc5F)n4)C3)n(C[C@@H]3CCO3)c2c1` [Compound 82, (S)-2-(2-(3-(6-((4-chloro-2-fluorobenzyl)oxy)pyridin-2-yl)azetidin-1-yl)ethyl)-1-(oxetan-2-ylmethyl)-1H-benzo[d]imidazole-6-carboxylic acid] was 20 to 100 nM. Consider `C[C@@]1(c2ccc(Cl)cn2)Oc2cccc(C3=CC[C@@H](Cc4nc5ccc(C(=O)O)cc5n4C[C@@H]4CCO4)OC3)c2O1` (single isomer, unassigned) [Compound 79], for which the 50% effective concentration (EC50) was over 100 nM. Molecule `CC1(c2ccc(Cl)cc2F)Oc2cccc(C3CC4(C3)CN(Cc3nc5ccc(C(=O)O)cc5n3C[C@@H]3CCO3)C4)c2O1` (mixture of isomers) [Compound 23, 2-((6-(2-(4-chloro-2-fluorophenyl)-2-methylbenzo[d][1,3]dioxol-4-yl)-2-azaspiro[3.3]heptan-2-yl)methyl)-1-(((S)-oxetan-2-yl)methyl)-1H-benzo[d]imidazole-6-carboxylic acid] had an EC50 of over 100 nM. On to `C[C@@]1(c2ccc(Cl)cc2F)Oc2cccc(-c3ccc(Cc4nc5ccc(C(=O)O)cc5n4C[C@@H]4CCO4)nc3)c2O1` (single isomer, unassigned) [Compound 4], for which the EC50 was over 100 nM. The value for `C[C@@]1(c2ccc(Cl)cn2)Oc2cccc([C@@H]3CC[C@H](Cc4nc5ccc(C(=O)O)cc5n4C[C@@H]4CCO4)OC3)c2O1` (single isomer, unassigned) [Compound 103] was 20 to 100 nM. The value for `CCC1(c2ccc(Cl)cc2F)Oc2cccc(-c3ccc(Cc4nc5ccc(C(=O)O)cc5n4C[C@@H]4CCO4)cc3)c2O1` (mixture of isomers) [Compound 7, 2-(4-(2-(4-chloro-2-fluorophenyl)-2-ethylbenzo[d][1,3]dioxol-4-yl)benzyl)-1-(((S)-oxetan-2-yl)methyl)-1H-benzo[d]imidazole-6-carboxylic acid] was over 100 nM; that for `C[C@@]1(c2ccc(C3CC3)cn2)Oc2cccc(C3=CCC(Cc4nc5ccc(C(=O)O)cc5n4C[C@@H]4CCO4)OC3)c2O1` (single isomer, unassigned) [Compound 111] was under 20 nM. In turn, `C[C@@]1(c2ccc(Cl)cn2)Oc2cccc([C@H]3CC[C@@H](Cc4nc5ccc(C(=O)O)cc5n4C[C@@H]4CCO4)OC3)c2O1` (single isomer, unassigned) [Compound 102] yielded an EC50 of over 100 nM.
